According to patent US20130030000A1, “PHARMACEUTICAL COMPOSITIONS FOR THE TREATMENT OF PAIN AND OTHER INDICATIONS” (priority 2010, published 2013):
Structures can show the parent of a compound that is named as a salt.

Each molecule was assayed against T1, Human FAAH (Homo sapiens, UniProt O00519) (assay: Human FAAH lysate assay (CHO cell lysate expressing FAAH, AAMCA or 3H-anandamide hydrolysis)). Conditions: B series; read-out: Human FAAH lysate assay: IC50.
T1 construct: The full length FAAH was subcloned into the mammalian expression vector, peDEF.neo
T1 sequence (O00519 1-579): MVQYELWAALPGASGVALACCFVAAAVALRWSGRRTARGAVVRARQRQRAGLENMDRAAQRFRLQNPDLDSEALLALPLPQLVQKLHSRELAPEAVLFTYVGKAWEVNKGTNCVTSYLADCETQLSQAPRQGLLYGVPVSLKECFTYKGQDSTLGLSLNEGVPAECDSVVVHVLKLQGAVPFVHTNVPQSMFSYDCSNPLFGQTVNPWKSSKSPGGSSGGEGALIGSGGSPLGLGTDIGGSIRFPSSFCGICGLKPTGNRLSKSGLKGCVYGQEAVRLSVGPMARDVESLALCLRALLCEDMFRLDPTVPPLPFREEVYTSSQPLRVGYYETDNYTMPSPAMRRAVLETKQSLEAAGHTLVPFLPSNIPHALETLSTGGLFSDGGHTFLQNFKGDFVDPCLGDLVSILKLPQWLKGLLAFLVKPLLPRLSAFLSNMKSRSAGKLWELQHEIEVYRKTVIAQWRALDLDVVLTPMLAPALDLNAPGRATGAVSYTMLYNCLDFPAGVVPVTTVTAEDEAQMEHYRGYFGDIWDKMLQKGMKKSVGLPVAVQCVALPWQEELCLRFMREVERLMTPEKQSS
Type: biochemical
Description: To assist in assay development stable cell lines for human, murine and rat full length FAAH were developed. […] The full length FAAH was subcloned into the mammalian expression vector, peDEF.neo, using XbaI and EcoRI restriction sites and used for stable cell line generation.
CHO cells expressing FAAH were used to prepare either crude cell lysate or microsome fractions. To harvest cells, tissue culture media was decanted, the monolayer washed three times with Ca^++Mg^++ free PBS and cells recovered after […] in enzyme free dissociation media (Millipore Corp, Billerica, Mass.). Cells were collected by centrifuging at 2000 rpm for 15 min. and the cell pellet re-suspended with 50 mM HEPES (pH 7.4) containing 1 mM EDTA and the protease inhibitors aprotinin (1 mg/ml) and leupeptin (100 μM). The suspension was sonicated at 4° C. and the cell lysate recovered after centrifuging at 12,000×g (14,600 rpm, SS34 rotor) for 20 min at 4° C. to form a crude pellet of cell debris, nuclei, peroxisomes, lysosomes, and mitochondria; the supernatant or cell lysate was used for FAAH enzyme assay. In some cases, microsomes fractions enriched in FAAH were prepared by centrifuging the cell lysate further at 27,000 rpm (100,000×g) in SW28 rotor for 50 minutes at 4° C. The pellet containing FAAH-enriched microsomes was re-suspend in 50 mM HEPES, (pH 7,4) 1 mM EDTA, and any remaining DNA sheared by passage of material through a 23 gauge needle and aliquots of enzyme were store at −80° C. prior to use.
Assays are performed on either cell lysate or microsome fractions prepared as described or in whole cell format employing either the fluorescent substrate AAMCA (Cayman chemical, Ann Arbor, Mich.,) or ^3H-anandamide ([ETHANOLAMINE-1-3H] American Radiolabeled Chemicals; 1 mCi/ml). The cell lysate or microsome assay is performed in Costar black wall, clear bottom plates by adding FAAH_CHO (whole cell, cell lysate or microsome) in assay buffer (50 mM Phosphate, pH 8.0, 1 mM EDTA, 200 mM KCl, 0.2% glycerol, 0.1% fatty acid free BSA) to each well, followed by either DMSO or compound and allowed to incubate at 22-25° C. for fifteen minutes. AAMCA substrate was used to achieve a final concentration of 1 μM and reaction allowed to proceed at room temperature for 1-3 hours. […] Whole cell assay is conducted with cells harvested after rinsing tissue culture flasks three times with Ca^++Mg^++ free PBS, incubating for 10 mm in Enzyme free dissociation media and centrifuging for 5 minutes at 1,000 rpm in table top centrifuge. Cells are resuspended in assay buffer at desired cell number in (4×10^4 cells/assay in 96-well format; 1×10^4 cells/assay in 384-well format) and assayed as described.
Alternatively, assays are performed using anandamide [ethanolamine 1-^3H] (specific activity of 10 Ci/mmol) diluted with cold anandamide to achieve a final assay concentration of 1 μM anandamide (˜50,000 cpm). Enzyme (CHO cell lysate, brain or liver homogenate) is incubated in assay buffer (50 mM Phosphate, pH 8.0, 1 mM EDTA, 200 mM KCl, 0.2% glycerol, 0.1% fatty acid free BSA) with inhibitor at 25° C. for 30 minutes. The reaction was terminated by addition of 2 volumes of chloroform:methanol (1:1) and mixed by vortexing. Following a centrifugation step, 2000 rpm for 10 min. at room temperature, the aqueous phase containing the released […] was recovered and quantitated by liquid scintillation as a reflection of FAAH enzyme activity.

| Structure (SMILES) | IC50 |
| --- | --- |
| Cn1cnc(-c2ccc([C@H]3C[C@@H]3c3n[nH]c(=O)[nH]3)cc2)c1Sc1ccc(Cl)cn1 [Example 33B, 5-[(1S,2S)-2-(4-{5-[(5-chloropyridin-2-yl)thio]-1-methyl-1H-imidazol-4-yl}phenyl)cyclopropyl]-2,4-dihydro-3H-1,2,4-triazol-3-one] | 545 nM |
| Cc1nc(-c2ccc([C@@H]3C[C@H]3C(=O)N(C)C)cc2)c(Sc2ccc(Cl)cn2)n1C [Example 12B, (1R,2R)-2-(4-{5-[(5-Chloropyridin-2-yl)thio]-1,2-dimethyl-1H-imidazol-4-yl}phenyl)-N,N-dimethylcyclopropanecarboxamide] | 13.6 nM |
| COC[C@H]1C[C@@H]1c1ccc(-c2ncn(C)c2Sc2ccc(Cl)cn2)cc1 [Example 24B, 5-Chloro-2-[(4-{4-[(1S,2S)-2-(methoxymethyl)cyclopropyl]phenyl}-1-methyl-1H-imidazol-5-yl)thio]pyridine] | 35.5 nM |
| COc1nnc([C@H]2C[C@@H]2c2ccc(-c3ncn(C)c3Sc3ccc(Cl)cn3)cc2)o1 [Example 18B, 5-Chloro-2-[(4-{4-[(1S,2S)-2-(5-methoxy-1,3,4-oxadiazol-2-yl)cyclopropyl]phenyl}-1-methyl-1H-imidazol-5-yl)thio]pyridine] | 15.6 nM |
| Cn1cnc(-c2ccc([C@H]3C[C@@H]3c3n[nH]c(=O)o3)cc2)c1Sc1ccc(Cl)cn1 [Example 17B, 5-[(1S,2S)-2-(4-{5-[(5-Chloropyridin-2-yl)thio]-1-methyl-1H-imidazol-4-yl}phenyl)cyclopropyl]-1,3,4-oxadiazol-2(3H)-one] | 4.5 nM |
| Cn1cnc(-c2ccc([C@H]3C[C@@H]3c3n[nH]c(=O)n3C)cc2)c1Sc1ccc(Cl)cn1 [Example 34B, 5-[(1S,2S)-2-(4-{5-[(5-chloropyridin-2yl)thio]-1-methyl-1H-imidazol-4-yl}phenyl)cyclopropyl]-4-methyl-2,4-dihydro-3H-1,2,4-triazol-3-one] | 893 nM |
| Cn1cnc(-c2ccc([C@H]3C[C@@H]3c3n[nH]c(=S)[nH]3)cc2)c1Sc1ccc(Cl)cn1 [Example 32B, 5-[(1S,2S)-2-(4-{5-[(5-chloropyridin-2-yl)thio]-1-methyl-1H-imidazol-4-yl}phenyl)cyclopropyl]-2,4-dihydro-3H-1,2,4-triazole-3-thione] | 304 nM |
| CN(C)C(=O)C1CC1c1ccc(-c2nc(C3CC3)n(C)c2Sc2ccc(Cl)cn2)cc1 (centres unmarked) [Example 13B, 5-[(5-Chloropyridin-2-yl)thio]-2-cyclopropyl-4-(4-{2-[(dimethylamino)carbonyl]cyclopropyl}phenyl)-1-methyl-1H-imidazol-3-ium trifluoroacetate] | 48.3 nM |
| CN(CCF)C(=O)[C@H]1C[C@@H]1c1ccc(-c2ncn(C)c2Sc2ccc(Cl)cn2)cc1 [Example 11B, (1S,2S)-2-(4-{5-[(5-Chloropyridin-2-yl)thio]-1-methyl-1H-imidazol-4-yl}phenyl)-N-(2-fluoroethyl)-N-methylcyclopropanecarboxamide] | 3 nM |
| CN(C)C(=O)[C@H]1C[C@@H]1c1ccc(-c2ncn(CCF)c2Sc2ccc(Cl)cn2)cc1 [Example 14B, 5-[(5-Chloropyridin-2-yl)thio]-4-(4-{(1S,2S)-2-[(dimethylamino)carbonyl]cyclopropyl}phenyl)-1-(2-fluoroethyl)-1H-imidazol-3-ium trifluoroacetate] | 3.2 nM |
| Cn1cnc(-c2ccc([C@H]3C[C@@H]3c3noc(=O)[nH]3)cc2)c1Sc1ccc(Cl)cn1 [Example 36B, 5-[(5-chloropyridin-2-yl)thio]-1-methyl-4-{4-[(1S,2S)-2-(5-oxo-4,5-dihydro-1,2,4-oxadiazol-3-yl)cyclopropyl]phenyl}-1H-imidazol-3-ium trifluoroacetate] | 95.4 nM |
| Cn1nnc([C@H]2C[C@@H]2c2ccc(-c3ncn(C)c3Sc3ccc(Cl)cn3)cc2)n1 [Example 38B, 5-chloro-2-[(1-methyl-4-{4-[(1 S,2S)-2-(2-methyl-2H-tetrazol-5-yl)cyclopropyl]phenyl}-1H-imidazol-5-yl)thio]pyridine] | 37 nM |
| Cn1cnc(-c2ccc([C@H]3C[C@@H]3c3n[nH]c(=S)o3)cc2)c1Sc1ccc(Cl)cn1 [Example 31B, 5-[(1S,2S)-2-(4-{5-[(5-chloropyridin-2-yl)thio]-1-methyl-1H-imidazol-4-yl}phenyl)cyclopropyl]-1,3,4-oxadiazole-2(3H)-thione] | 677 nM |

Further lines, results first:

| IC50 | Structure (SMILES) |
| --- | --- |
| 1.5 nM | Cn1cnc(-c2ccc([C@H]3C[C@@H]3C(=O)NCCF)cc2)c1Sc1ccc(Cl)cn1 [Example 1013, (1S,2S)-2-(4-{5-[(5-Chloropyridin-2-yl)thio]-1-methyl-1H-imidazol-4-yl}phenyl)-N-(2-fluoroethyl)cyclopropanecarboxamide] |
| 650 nM | CN(C)C(=O)[C@H]1C[C@@H]1c1ccc(-c2nc[nH]c2Sc2ccc(Cl)cn2)cc1 [Example 20B, (1S,2S)-2-(4-{5-[(5-Chloropyridin-2-yl)thio]-1H-imidazol-4-yl}phenyl)-N,N-dimethylcyclopropanecarboxamide] |
| 0.2 nM | COC(=O)[C@H]1C[C@@H]1c1ccc(-c2ncn(C)c2Sc2ccc(Cl)cn2)cc1 [Example 21B, Methyl (1S,2S)-2-(4-{5-[(5-chloropyridin-2-yl)thio]-1-methyl-1H-imidazol-4-yl}phenyl)cyclopropanecarboxylate] |
| 1.4 nM | CN(C)C(=O)C1CC1c1ccc(-c2ncn(C)c2Sc2ccc(Cl)cn2)cc1 (centres unmarked) [Example 1B, 2-(4-{5[(5-Chloropyridin-2yl-)thio]-1-methyl-1H-imidazol-4-yl}phenyl)-N,N-dimethylcyclopropanecarboxamide] |
| 1 nM | CN(C)C(=O)[C@H]1C[C@@H]1c1ccc(-c2ncn(C)c2Sc2ccc(Cl)cn2)cc1 [Example 5B, (1S,2S)-2-(4-{5-[(5-Chloropyridin-2-yl)thio]-1-methyl-1H-imidazol-4-yl}phenyl)-N,N-dimethylcyclopropanecarboxamide] |

Same assay, conditions: tables of the B series; read-out: hFAAH lysate IC50

| Structure (SMILES) | IC50 |
| --- | --- |
| Cn1cnc(-c2ccc([C@H]3C[C@@H]3c3n[nH]c(=O)o3)cc2)c1Sc1ccc(Cl)cc1 [Example 39B] | 24 nM |
| COc1cnc(Sc2c(-c3ccc([C@H]4C[C@@H]4c4n[nH]c(=O)o4)cc3)ncn2C)nc1 [Example 40B] | 33 nM |

Other lines, results leading:

| IC50 | Structure (SMILES) |
| --- | --- |
| 196 nM | Cn1cnc(-c2ccc([C@H]3C[C@@H]3C(=O)NC(C)(C)C)cc2)c1Sc1ccc(Cl)cn1 [Example 8B] |
| 6.3 nM | CC(C)NC(=O)C1CC1c1ccc(-c2ncn(C)c2Sc2ccc(Cl)cn2)cc1 (centres unmarked) [Example 2B] |
| 5.8 nM | CNC(=O)[C@H]1C[C@@H]1c1ccc(-c2ncn(CCF)c2Sc2ccc(Cl)cn2)cc1 [Example 15B] |
| 1.4 nM | CNC(=O)C1CC1c1ccc(-c2ncn(C)c2Sc2ccc(Cl)cn2)cc1 (centres unmarked) [Example 3B] |
| 3.3 nM | Cn1cnc(-c2ccc([C@H]3C[C@@H]3C(N)=O)cc2)c1Sc1ccc(Cl)cn1 [Example 7B] |
| 1.1 nM | CNC(=O)[C@H]1C[C@@H]1c1ccc(-c2ncn(C)c2Sc2ccc(Cl)cn2)cc1 [Example 6B] |
